Entries after “also recorded” stand apart in the source; their conditions may differ. Where two headings read alike, the source gives them in different places. Blank lines part the entries; values can stand above or below the compound they belong to.
What was measured:
Type in all cases: cell-based, human
[1] = system: HEY A8 CSCs (HEY A8 SP); experiment: Toxicity / cell viability (CellTiter-Glo) on HEY A8 spheres (CSCs); conditions: for rank of toxicity among the 14 molecules on HEY A8 CSCs: 5 μM; for rank of toxicity among the 14 molecules on HEY A8 CSCs / cell viability of HEY A8 CSCs (toxicity): 48 h; for IC50: HEY A8 spheres, 48 h incubation, read-out: IC50 Cancer Stem Cell HeyA8 SP; for cell viability of HEY A8 CSCs (toxicity): compound 5 μM; for selectivity towards ovarian CSCs over ovarian cancer cells and normal cells: from IC50 values, FIG. 4 and Table 1
Method: Aminoxy acids were synthesized by the standard peptide coupling procedures. The CSCs are obtained by spheroids culturing under suspension condition. It is confirmed that these spheres indeed contain significant higher population of cells with CD133 antigenic phenotype, which has been reported can represent ovarian CSCs (FIG. 2). After treatment with compounds for 48 h, the cell viability of CSCs was measured by using CELLTITER-GLO® luminescent reagent. Compound sff-3-85 (“Example 2”) were used at the dose of 10 μM, all the other compounds were used at the concentration of 5 μM. All experiments were performed three times and data is presented as mean±SD.
(§1) Cell Cultures Human ovarian carcinoma cell lines HEY A8 and SKOV3 were gifts from Professor Alice Wong's group (The University of Hong Kong). Cells were grown in Dulbecco's Modified Eagle (DMEM) medium supplemented with 10% FBS and 1% penicillin/streptomycin at 37° C. in a humidified atmosphere containing […] CO2. Isolation and culture of spheres were performed in serum-free stem-cell-selective condition as described in literature Ip etl. Oncogene 2014, 5, 9133-9149. Briefly, 1-2 weeks after plating, non-adherent spherical clusters of cells could be observed and were separated from single cells by low speed centrifugation. After 8th to 10th passages, the non-adherent spherical clusters of cells appeared as distinct spheres. Using this selection condition, HEY A8 spheres (HEY A8 SP) or SKOV3 spheres (SKOV3 SP) could be enzymatically dissociated and reformed into spheres within 3 days under stem-cell-selective condition. To allow differentiation, dissociated sphere cells were plated on tissue culture plates in medium (MCDB 105:M199=1:1) supplemented with 10% FBS and 1% PS.
(§2) HEY A8 SP cells (5×10^4) were plated in triplicate in 10 mL serum-free MCDB105 medium in 100-mm Petri dish for 7 days to form spheres. Compound at the final concentration of 5 μM was added. The cells were further incubated at 37° C. for 48 h. After that cells were collected by centrifugation and the medium was removed. Then 100 μL CellTiter-Glo® Luminescent Cell Viability reagent was added into each tube, which was incubated for 10 min with shaking. After that, the reagent was transferred into 96-well plates and cell viability was measured using a microplate reader (SpectraMax 340PC 384, Molecular Devices).
as §2, with “A8 SP cells or SKOV3” for “A8”, “Then drugs” for “Compound”, “different” for “the final”, “were” for “of 5 μM was”, “μL of” for “μL”

[2] = system: Adherent Hey A8 cells; experiment: Cell respiration, oxygen consumption rate (Seahorse XF24); conditions: FIG. 10; for cell respiration response to subsequent addition of FCCP, antimycin A and rotenone: more obvious at higher doses
Method: Cell respiration was measured by using an XF24 Extracellular Flux Analyzer (Seahorse, Bioscience), which measures the oxygen consumption rate (OCR). Adherent Hey A8 cells were seeded at 50000 cells/well in […] of their culture medium and incubated for 24 h at 37° C. in humidified atmosphere with 5% CO2. The medium was then replaced with 670 μL/well of high-glucose DMEM without serum and supplemented with 1 mM sodium pyruvate and 2 mM L-glutamine. The oxygen consumption rate (OCR) was measured with an extracellular flux analyzer (Seahorse) at preset time intervals upon the preprogrammed additions of the following compounds: Oligomycin to 1 μM, FCCP to 500 nM, Antimycin A and Rotenone to 0.5 μM final concentrations.

[3] = system: HEY A8 cells; experiment: Mitochondrial membrane potential (JC-1 red to green ratio); conditions: for mitochondrial membrane potential, kinetic study: 10 μM added at 180 s, image interval 30 s; for mitochondrial membrane potential depolarization: treated 10 min, FIG. 8a
Method: A suspension of HEY A8 cells at the concentration of 5×10^4 cells/mL in DMEM medium were seeded into 30-mm cell culture dishes with glass bottom (MatTek). Cells were incubated at 37° C. in a humidified atmosphere containing 5% CO2 for 24 h. Medium was aspirated and cells was washed with PBS buffer twice. Then 1 mL HBSS buffer containing 2.5 μM JC-1 was added. Cells were incubated at 37° C. for 20 min before the buffer was aspirated. Cells were washed with PBS buffer twice and treated with cation transporters for 10 min. Fluorescence was monitored by confocal imaging with ZEISS LSM 780 (Red channel: λex=543 nm, Green channel: λex=488 nm). Quantitative data were obtained using the ZEN and Graph Pad Prism software packages.
The Kinetic study of this compound on the MMP in HEY A8 cells was also conducted. Compound sff-2-112 (“Example 1”) or sff-2-132 (“Example 4”) at the final concentration of 10 μM was added at 180 s. The interval for each image was 30 s. The decrease in red to green fluorescence ratio of JC-1 indicates MMP depolarization.

[4] = system: HEY A8 CSCs; experiment: Immunoblotting of autophagy associated proteins P62 and LC3; conditions: 24 h; CSCs at 10-fold lower concentration than cancer cells
Method: HEY A8 cancer cells and CSCs were treated with compound sff-2-112 (“Example 1”) or sff-2-132 (“Example 4”) for 24 h. Then cells were washed twice with PBS buffer and lysed for immuno-staining. The immunostaining methods were as same as it described in Example 10.

[5] = system: HEY A8 cancer cells; experiment: Cell viability (CellTiter-Glo) on adherent HEY A8 cancer cells; conditions: read-out: IC50 Cancer Cell HeyA8
Method: as §1
HEY A8 or SKOV3 cancer Cells were plated in triplicate in 0.1 mL full medium in 96-well plates for 24 h. After that, the medium was changed to the fresh prepared medium with various concentrations of compounds. Cells were incubated for another 48 h. Then the cell viability was measured by CellTiter-Glo® Luminescent Cell Viability reagent according to the manufacture's instruction. The luminescence at 550 nm was measured using a microplate reader (SpectraMax 340PC 384, Molecular Devices).

[6] = system: HEY A8 cells; experiment: Sphere formation in suspension culture after treatment; conditions: 15 or 30 μM for 48 h, 3 days recovery, 5 days sphere formation
Method: Hey A8 cells were treated with compounds DMSO sff-2-112 (“Example 1”) or sff-2-132 (“Example 4”) at the concentration of 15 or 30 μM for 48 h. Then cells were allowed to recover and grow in full medium in cell culture dishes for 3 days. After that, cells at the density of 5×10^4 cells/mL were transferred into low attachment dishes for 5 days to allow sphere formation. The number of spheres in each dish were counted.

SMILES: O=C(NO[C@H](COCc1ccccc1)C(=O)Nc1ccccc1)c1cc(C(F)(F)F)cc(C(F)(F)F)c1 [sff-2-112]
rank of toxicity among the 14 molecules on HEY A8 CSCs [1]: highest toxicity
IC50 [1]: 1.5 ± 1.3 µM
cell viability of HEY A8 CSCs (toxicity) [1]: significantly decreased the cell viability
selectivity towards ovarian CSCs over ovarian cancer cells and normal cells [1]: selectively induce the death of ovarian CSCs
OCR after addition of compound [2]: OCR immediately increased
cell respiration response to subsequent addition of FCCP, antimycin A and rotenone [2]: significantly decreased
mitochondrial membrane potential, kinetic study [3]: MMP depolarized immediately
mitochondrial membrane potential depolarization [3]: effectively depolarize mitochondrial membrane potential (MMP) of HEY A8 cells in a dose dependent manner
LC3-II and p62 levels (autophagy suppression) [4]: Increased levels of both LC3-II and p62 in CSCs
IC50 ([5]; 48 h incubation): 23.4 ± 2.1 µM
sphere forming ability / number of spheres relative to controls [6]: significant decrease in the number of spheres; also recorded: significantly reduced sphere forming ability

IC50 ([5]; Homo sapiens, HEY A8, 48 h incubation): 52.9 ± 1.9 µM
SMILES: CC(C)(C)OC(=O)[C@@H](COCc1ccccc1)ONC(=O)c1cc(C(F)(F)F)cc(C(F)(F)F)c1 [sff-2-132]
rank of toxicity among the 14 molecules on HEY A8 CSCs [1]: highest toxicity
IC50 ([1]; Homo sapiens): 1 ± 0.9 µM
cell viability of HEY A8 CSCs (toxicity) [1]: significantly decreased the cell viability
selectivity towards ovarian CSCs over ovarian cancer cells and normal cells [1]: best selectivity; also recorded: selectively induce the death of ovarian CSCs
selectivity to CSCs over cancer cells ([1]; ovarian CSCs vs adherent cancer cells (and normal cells)): up to 60 fold
OCR after addition of compound [2]: OCR immediately increased
cell respiration response to subsequent addition of FCCP, antimycin A and rotenone [2]: significantly decreased
mitochondrial membrane potential, kinetic study [3]: MMP depolarized immediately
mitochondrial membrane potential depolarization [3]: effectively depolarize mitochondrial membrane potential (MMP) of HEY A8 cells in a dose dependent manner
LC3-II and p62 levels (autophagy suppression) [4]: Increased levels of both LC3-II and p62 in CSCs
sphere forming ability / number of spheres relative to controls [6]: significant decrease in the number of spheres; also recorded: significantly reduced sphere forming ability
